# Measurements taken from patent publication US20190183868A1, “FORMULATIONS AND TREATMENTS EMPLOYING HYDROXYPYRIDONATE ACTINIDE/LANTHANIDE DECORPORATION AGENTS” (priority 2016, published 2019).
# Tests used:
# [1] = Pharmacokinetics and biodistribution of ^14C-labeled ligand in mice; type: in vivo, Swiss-Webster mouse; details: for metabolic degradation: ^14C-labeled ligands
# Source text: The pharmacokinetics and biodistribution profile of the ^14C-labeled 3,4,3-LI(1,2-HOPO) were recently characterized in the young Swiss-Webster mouse model. After parenteral injection, the radiolabeled compound was rapidly distributed into high vascular tissues, and highest kidney and liver concentrations were seen as early as 1-hour post-administration. However, those high concentrations […] and more strikingly, about 40% of the administered dose was still in various tissues and organs after 24 hours. […] Nevertheless, retention of the ligand was significant within the first 6 hours after oral administration, which also corroborates the shorter but consequent prophylactic activity of 3,4,3-LI(1,2-HOPO) after oral administration.
# Those differences have been discussed previously and are presumably based on respective ligand and actinide-complex physico-chemical parameters such as solubility, lipophilicity, and ionization constants. […] It is therefore likely that the radionuclide excretion path is ligand-driven.
# (§1) Oral Activity. Both compounds are orally active actinide chelators: when administered orally to mice or beagles after a Pu injection, 3,4,3-LI-1,2-HOPO and 5-LIO-Me-3,2-HOPO can remove up to 80% and 60%, respectively, of the injected Pu.
# [2] = Clearing circulating or newly deposited Pu from mouse tissues compared with CaNa3-DTPA; type: in vivo
# Source text: For example, the efficiency of 3,4,3-LI-1,2-HOPO for clearing circulating Pu from mouse tissues ranges from 100 times (skeleton) to 240 times (soft tissues) that of CaNa3-DTPA in five different protocols. In addition, the optimal activity dose of 3,4,3-LI-1,2-HOPO for removing newly deposited Pu from mice is 2.5% of the dose of CaNa3-DTPA used clinically. The tetradentate 5-LIO-Me-3,2-HOPO has potential therapeutic value for Pu, U, Am and Np, and its efficiency for clearing circulating Pu from mouse tissues ranges from 5 times (skeleton) to 15 times (liver) that of CaNa3-DTPA.
# [3] = Delayed parenteral (ip) chelation treatment of mice contaminated iv with ^238Pu-citrate; type: in vivo, Swiss-Webster mice; details: for adverse effects at the dose levels used: both studies (delayed and prophylactic treatment); for sustained action beyond 24 hours after treatment: cumulative ^238Pu excretion, FIG. 4; for ^238Pu excretion pathway enhanced by treatment: independent of post-contamination treatment time, FIG. 5; for time by which rates of elimination became slower than in control animals: prompt treatment 1 hour post-contamination; for ^238Pu elimination, total body burden and tissue content versus saline-treated controls: 7 days after treatment
# Method: (§2) A stock solution of ^238Pu-nitrate in 4 M HNO3 was purchased from Eckert and Ziegler Isotope Products (Valencia, CA, USA) and used to prepare injection solutions. Contamination doses consisted of 0.2 mL aliquots of solutions containing 0.74 kBq (1.16 ng) of ^238Pu in 0.008 M sodium citrate and 0.14 M NaCl, pH 4. The ligands 3,4,3-LI(1,2-HOPO) and 5-LIO(Me-3,2-HOPO) were prepared by Synthetech, Inc. (Albany, Oreg., USA) and Albany Molecular Research, Inc. (Albany, NY, USA), respectively, as described previously. DTPA was obtained from Sigma-Aldrich (St. Louis, Mo., USA) and was formulated as Ca-DTPA using CaCO3 and NaOH, similarly to the formerly available drug product commercialized by Hameln Pharmaceuticals gmbh (Hameln, Germany). Ligand solutions were prepared such that the selected dosages ([…] for Ca-DTPA, 30 or 100 mol/kg for 3,4,3-LI(1,2-HOPO), and 100 or 200 mol/kg for 5-LIO(Me-3,2-HOPO)) were contained in 0.5 mL of 0.14 M NaCl, with the pH adjusted to 7.4-8.4 with 1 N NaOH. All solutions were filter-sterilized (0.22 μm) prior to administration. The concentration of each solution was verified by high-performance liquid chromatography, following modified published methods.
# (§3) All procedures and protocols used in the described in vivo studies were reviewed and approved by the Institutional Animal Care and Use Committee of Lawrence Berkeley National Laboratory and were performed in AAALAC accredited facilities. The animals used were young adult (86±6 days old for delayed treatment experiment and 90±3 days old for prophylactic treatment experiment) female (30.7±4.0 g for delayed treatment experiment and 30.8±1.6 g for prophylactic treatment experiment) Swiss-Webster mice (Simonsen Laboratories, Gilroy, Calif., USA). Gross body and tissue compositions, plasma, extracellular fluid, and red cell volumes of the whole body, major tissues and organs of these mice (intact or bled 25 to 40% of their total blood volume) have been determined previously. Mice were kept under a 12-hour light cycle with controlled temperature (18-22° C.) and relative humidity (30-70%), and were given water and food ad libitum. Each group of mice was housed together in a plastic stock cage lined with a 0.5 cm layer of highly absorbent low-ash pelleted cellulose bedding (ALPHA-dri®) for separation of urine and feces. Intravenous (iv) injections into a warmed lateral tail vein, intraperitoneal (ip) injections, oral administrations (po, through gastric intubation) and euthanasia were performed under isoflurane anesthesia. Treatment dose volumes were adjusted based on the weight of the mouse, with a 0.5 mL volume corresponding to a 35 g mouse. To probe the effect of delayed treatment, groups of five mice were injected iv with a single dose of ^238Pu-citrate, and ligand or control saline solutions were administered ip once at the following post-contamination treatment times: 1 h, 5 h, 16 h, 24 h, 3 d, 7 d. Excreta were collected daily for 7 days. Animals were euthanized 7 days after treatment. To probe the effect of prophylactic treatment, groups of five mice were first administered ligand or control saline solutions ip or po once at the following pre-contamination treatment times: −1 h, −6 h, −16 h, −24 h, −30 h, −40 h, −48 h. Mice were then injected iv with a single dose of ^238Pu-citrate and excreta were collected daily for 3 days. Animals were euthanized 3 days (72 h) after contamination. Mice were euthanized by cervical dislocation over their respective cage to collect the urine expelled at death, and immediately wrapped in plastic and frozen for later dissection.
# (§4) After partial thawing of the frozen mice, livers and kidneys were dissected, and the abdominal tissue remainder (ATR, which includes intact gastrointestinal (GI) tract, reproductive organs, spleen, urinary bladder, and abdominal fat) was removed. The livers, kidneys, ATR, and partially eviscerated carcasses were managed as individual samples. […]
# [4] = Oral activity: removal of injected Pu after oral administration; type: in vivo; details: administered orally after a Pu injection, mice or beagles
# Source text: as §1
# [5] = Prophylactic parenteral or oral chelation treatment of mice before iv ^238Pu-citrate contamination; type: in vivo, Swiss-Webster mice; details: for prophylactic window with significant reductions in total body, skeleton and liver ^238Pu: oral administration, versus saline controls; for prophylactic window with significant reduction of body and tissue ^238Pu burden: parenteral (ip) administration prior to contamination
# Method: as §2, §3, §4
# [6] = Gd-153 decorporation in mice injected with ^153Gd citrate (Example 9); type: in vivo; details: for excretion pathway: Gd-153
# Method: The present example is an evaluation of the metal-removal effectiveness of various molecules, including 3,4,3-LI(1,2-HOPO) and DTPA. The arrangements tested (which compounds, how much, how long pre or post-contamination the compound was administered, etc.) are outlined in Table 9.1.
# The results of the various test arrangements in Table 9.1 are detailed in FIGS. 8A-8Q. The data is plotted as a percent of recovered dose (%RD), with whole animal and specific tissue isotope content determine at a unique time point (4 days post metal challenge) while excreta are determined daily until necropsy. […] The almost-exclusively-fecal excretion pathway of 3,4,3-LI(1,2-HOPO) is also remarkably different from that of DTPA (urinary). […] FIGS. 8A-8C depict a general overview of the results. FIG. 8D depicts a comparative analysis of the recovered dose in the body vs excreta. FIGS. 8E-8P depict a break down by tissue type, including brain (FIG. 8E), Thymus (FIG. 8F), heart (FIG. 8G), lungs (FIG. 8H), spleen (FIG. 8I), kidneys (FIG. 8J), abdominal remaining tissue (ART, FIG. 8K), all other soft tissues (SOFT, FIG. 8L), liver (FIG. 8M), and skeleton (SKEL, FIG. 8N). FIGS. 8O and 8P show the total urinary and fecal excretion at the time of necropsy. FIG. 8Q depicts the daily excreta.
# [7] = ADME studies with ^14C-labeled 3,4,3-LI(1,2-HOPO) in rats (brain); type: in vivo; details: ^14C-labeled ligand; traces in rat brain several days after administration
# Source text: (§5) This property is particularly relevant to target Gd deposited in the brain.
# [8] = Complex stability constant in vitro, Pu(IV); type: binding
# Source text: (§6) The mechanism of action of 3,4,3-LI(1,2-HOPO) is a chelation mechanism, in which the compound binds the targeted actinide and forms a stable complex that can be eliminated through excretion pathways. Chelation is likely to be clinically efficacious if the affinity of the chelating agent for the targeted actinide metal ion is higher than those of potential biological ligands (such as proteins and bone matrices) and if its affinity for the targeted actinide metal ion is more specific than for essential divalent metal ions. A quantitative tool to predict the efficacy of a chelating agent and confirm its potential for actinide chelation is the determination of the corresponding actinide complex stability constants in vitro. As outlined in Example 2 below, these constants were evaluated for metals such as Pu(IV) (Log β110>41.5) or Cm(III) (Log β110=21.8), and support the chelation mechanism of action by 3,4,3-LI(1,2-HOPO).
# [9] = Decorporation of actinide ions in animal studies, potency versus DTPA; type: in vivo
# Source text: as §5
# [10] = Complex stability constant in vitro, Gd(III); type: binding
# Source text: as §6
# [11] = Complex stability constant in vitro, Cm(III); type: binding
# Source text: as §6
# [12] = single ip dose 1 hour to 16 hours post-contamination
molecule,measurement,setting,value
"Cn1ccc(C(=O)NCCOCCNC(=O)c2ccn(C)c(=O)c2O)c(O)c1=O [5-LIO(Me-3,2-HOPO)]",metabolic degradation,[1],stable to metabolic degradation
same,efficiency for clearing circulating Pu relative to CaNa3-DTPA,[2]; mouse liver,15 times
same,efficiency for clearing circulating Pu relative to CaNa3-DTPA,[2]; mouse skeleton,5 times
same,adverse effects at the dose levels used,[3],did not result in any discernable adverse effects
same,sustained action beyond 24 hours after treatment,[3],did not display significant sustained action
same,^238Pu excretion pathway enhanced by treatment,[3],primarily through the biliary pathway
same,time by which rates of elimination became slower than in control animals,[3],2 days post-treatment
same,"^238Pu elimination, total body burden and tissue content versus saline-treated controls",[3]; [12],significant increases in ^238Pu elimination rates
same,injected Pu removed,[4],≤ 60%
same,"prophylactic window with significant reductions in total body, skeleton and liver ^238Pu",[5],6 h
same,prophylactic window with significant reduction of body and tissue ^238Pu burden,[5],1 h
"diethylenetriamine pentaacetic acid [DTPA, reference compound]",sustained action beyond 24 hours after treatment,[3],visible over several days after treatment
same,^238Pu excretion pathway enhanced by treatment,[3],enhanced urinary excretion
same,excretion pathway,[6],urinary
same,prophylactic window with significant reduction of body and tissue ^238Pu burden,[5],6 h
"O=C(NCCCN(CCCCN(CCCNC(=O)c1cccc(=O)n1O)C(=O)c1cccc(=O)n1O)C(=O)c1cccc(=O)n1O)c1cccc(=O)n1O [3,4,3-LI(1,2-HOPO)]",blood-brain barrier penetration,[7],can penetrate the blood-brain barrier
same,Log β110,[8],> 41.5
same,metabolic degradation,[1],stable to metabolic degradation
same,administered dose still in various tissues and organs,"[1]; after 24 hours, parenteral injection, ^14C-labeled",about 40%
same,main mode of elimination of the ligand,"[1]; mice, parenteral or oral administration, ^14C-labeled",biliary pathway is the main mode of elimination
same,time of highest kidney and liver concentrations,"[1]; post-administration, parenteral injection, ^14C-labeled",1 h
same,potency relative to DTPA at decorporating actinide ions,[9],up to 30 times
same,"optimal activity dose for removing newly deposited Pu, as share of the CaNa3-DTPA dose used clinically",[2]; mice,2.5%
same,efficiency for clearing circulating Pu relative to CaNa3-DTPA,[2]; mouse skeleton,100 times
same,efficiency for clearing circulating Pu relative to CaNa3-DTPA,[2]; mouse soft tissues,240 times
same,^238Pu skeleton content,[3]; all tested treatment time points,significantly reduced
same,adverse effects at the dose levels used,[3],did not result in any discernable adverse effects
same,sustained action beyond 24 hours after treatment,[3],visible throughout the seven-day excreta collection period
same,^238Pu excretion pathway enhanced by treatment,[3],primarily through the biliary pathway
same,time by which rates of elimination became slower than in control animals,[3],3 days post-treatment
same,decrease in ^238Pu content versus DTPA treatment,[3]; [12],significantly better than those observed after DTPA treatment
same,"^238Pu elimination, total body burden and tissue content versus saline-treated controls",[3]; [12],significant increases in ^238Pu elimination rates
same,^238Pu elimination,[3]; treatment delayed 24 hours to 7 days after contamination,significantly enhanced
same,Gd-153 removal,"[6]; 100 μmol/kg ip, 48 hours post-exposure",extremely efficient
same,Gd-153 decorporation,"[6]; 100 μmol/kg ip, up to 24 hours prophylactically",high and almost quantitative level of decorporation
same,excretion pathway,[6],almost-exclusively-fecal
same,Gd-153 removal from kidneys,[6]; compared with DTPA,more efficient than DTPA
same,Gd-153 removal from the skeleton,"[6]; mouse, in vivo",ability at removing Gd-153 from the skeleton
same,injected Pu removed,[4],up to 80%
same,Log β110,[10],20.5
same,Log β110,[11],21.8
same,^238Pu urinary output relative to fecal output,[5]; 30 μmol/kg ip 1 hour prior to contamination,3 fold
same,^238Pu excreted within 3 days,[5]; ip injection 48 hours before contamination,up to 50%
same,"prophylactic window with significant reductions in total body, skeleton and liver ^238Pu",[5],6 h
same,prophylactic window with significant reduction of body and tissue ^238Pu burden,[5],≥ 48 h
same,"full body, skeleton, liver, soft tissue and kidney ^238Pu content versus saline- and DTPA-treated groups",[5]; prophylactic ip treatment,large significant reductions
same,oral bioavailability,[5]; reflected in lack of efficacy for earlier oral treatments,low
